Assay results reported in patent US20210047441A1, “ANTHOCYANIDIN COMPLEX” (priority 2012, published 2021).

Legend:
[1] = Stability tests in aqueous solution, 0.9% NaCl at 37° C. (Example 5); assay type: physicochemical; conditions: 0.9% NaCl solution, dark, start 1.584 mg/ml (complex), 0.0216 mg/ml (uncomplexed)
Procedure: In order to determine the content of delphinidin chloride in the delphinidin-containing solutions, a reverse phase HPLC process similar to that already described above was used. The following reagents were used thereby:
The delphinidin content was determined after 1, 2, 3 and 4 hours.
The determination of the delphinidin content in the samples was calculated with the aid of Agilent ChemStation software using calibration with the described external standard.

[2] = Solubility of delphinidin chloride in aqueous cyclodextrin solutions (Example 1); assay type: physicochemical; conditions: pure water, cyclodextrin concentration 0; stirred 20 hours at 30° C. in the dark, filtered 0.22 μm
Procedure: In this example, the complexing of delphinidin by various cyclodextrins and the solubility of the complex in aqueous solution are studied.
Neutral aqueous solutions comprising 10% by weight of the respective cyclodextrin were prepared.
In each case 5 ml of the aqueous cyclodextrin solutions and of pure water were introduced into glass flasks. An excess of delphinidin chloride was then added.
The suspensions were stirred for 20 hours at 30° C. in the dark. They were then filtered through a membrane filter of 0.22 μm pore size.

Structure (SMILES): Oc1cc(O)c2cc(O)c(-c3cc(O)c(O)c(O)c3)[o+]c2c1.[Cl-] [Delphinidin chloride]
- Delphinidin content as percentage of the starting concentration ([1]; 0 h): 100%
- Delphinidin content as percentage of the starting concentration ([1]; 1 h): 8.3%
- Delphinidin content as percentage of the starting concentration ([1]; 2 h): 6.5%
- Delphinidin content as percentage of the starting concentration ([1]; 3 h): 5.6%
- Delphinidin content as percentage of the starting concentration ([1]; 4 h): 5.1%
- Achievable solubility, Delphinidin chloride [2]: 70 µg/mL
